# Test results taken from patent US7781439B2, “Pyrazolopyrimidines” (Bayer CropScience AG, priority 2005, dated 2010).
# Marks after values point to notes of the source that are not given here.
# Test: log P determination
# Type: physicochemical
# Details: EEC Directive 79/831 Annex V. A8 by HPLC (gradient method, acetonitrile/0.1% aqueous phosphoric acid)
row,SMILES,log p
1,CC(C)C(C)Nc1c(-c2ccc(F)cc2Cl)c(Cl)nc2c(C(=O)Nc3ccn(C)n3)cnn12 (stereo not shown) [compound 1184],4.35
2,CC1CCN(c2c(-c3ccc(F)cc3Cl)c(Cl)nc3c(C(=O)Nc4ccn(C)n4)cnn23)CC1 [compound 1195],4.66
3,CC1CCN(c2c(-c3ccc(F)cc3Cl)c(Cl)nc3c(C(=O)Nc4ncn[nH]4)cnn23)CC1 [compound 1197],4.11
4,CC(C)C(C)Nc1c(-c2ccc(F)cc2Cl)c(Cl)nc2c(C(=O)Nc3ccnn3C)cnn12 (stereo not shown) [compound 1186],4.18
5,CC(C)C(C)Nc1c(-c2ccc(F)cc2Cl)c(Cl)nc2c(C(=O)Nc3ncn(C)n3)cnn12 (stereo not shown) [compound 1188],3.62
6,CC1CCN(c2c(-c3ccc(F)cc3Cl)c(Cl)nc3c(C(=O)Nc4cnn(C)c4)cnn23)CC1 [compound 1196],4.31
7,CC1CCN(c2c(-c3ccc(F)cc3Cl)c(Cl)nc3c(C(=O)Nc4ccnn4C)cnn23)CC1 [compound 1193],4.47
8,CC1CCN(c2c(-c3ccc(F)cc3Cl)c(Cl)nc3c(C(=O)Nc4ncn(C)n4)cnn23)CC1 [compound 1192],3.89

# Further lines, results first:
row,log p,SMILES
1,3.91,CC(Nc1c(-c2ccc(F)cc2Cl)c(Cl)nc2c(C(=O)Nc3ncn(C)n3)cnn12)C(C)(C)C (stereo not shown) [compound 1191]
2,4.85,CC(C)C(C)Nc1c(-c2c(Cl)cc(OC(F)(F)F)cc2Cl)c(Cl)nc2c(C(=O)NS(C)(=O)=O)cnn12 (racemic) [compound 1198]
3,3.87,CC(C)C(C)Nc1c(-c2ccc(F)cc2F)c(Cl)nc2c(C(=O)NS(C)(=O)=O)cnn12 (stereo not shown) [compound 1190]
4,4.69,CC(Nc1c(-c2ccc(F)cc2Cl)c(Cl)nc2c(C(=O)Nc3ccn(C)n3)cnn12)C(C)(C)C (stereo not shown) [compound 1185]
5,4.76,Cc1ccc(-c2c(Cl)nc3c(C(=O)NS(C)(=O)=O)cnn3c2NC(C)C(C)(C)C)c(Cl)c1 (stereo not shown) [compound 1194]

# Same assay, conditions: HPLC (gradient method); starting materials and intermediates, log P / log P*; read-out: log P
row,log p,SMILES
1,-0.07,COC(=O)c1cn[nH]c1N [methyl 5-amino-1H-pyrazole-4-carboxylate]

# Same assay, conditions: HPLC, gradient method, acetonitrile/0.1% aqueous phosphoric acid (EEC Directive 79/831 Annex V. A8)
row,log p,SMILES
1,4.42,CNC(=O)NC(=O)c1cnn2c(N[C@H](C)C(C)C)c(-c3ccc(F)cc3C)c(Cl)nc12 [Example 1178]
2,3.76,CC(Nc1c(-c2ccc(F)cc2F)c(Cl)nc2c(C(=O)NN3CCOCC3)cnn12)C(C)(C)C (stereo not shown) [compound 1182]
3,3.46,CC(C)C(C)Nc1c(-c2ccc(F)cc2F)c(Cl)nc2c(C(=O)NN3CCOCC3)cnn12 (stereo not shown) [compound 1180]

# Same assay, conditions: intermediates of formula drawing 23, table
row,log P,SMILES
1,4.61,"COC(=O)c1cnn2c(N3CCC(C)CC3)c(-c3c(F)cccc3Cl)c(Cl)nc12 [(CH2—CH2—CHCH3—CH2—CH2), 2-Cl-6-F-phenyl]"
2,4.31,"COC(=O)c1cnn2c(NC(C)C(C)C)c(-c3ccc(F)cc3Cl)c(Cl)nc12 (stereo not shown) [CH(CH3)—CH(CH3)2, H, 2-Cl-4-F-phenyl]"
3,4.21,"COC(=O)c1cnn2c(NC(C)C(C)C)c(-c3ccccc3Cl)c(Cl)nc12 (stereo not shown) [CH(CH3)—CH(CH3)2, H, 2-Cl-phenyl]"
4,4.05,COC(=O)c1cnn2c(NC(C)C(C)C)c(-c3c(F)cc(F)cc3F)c(Cl)nc12 (stereo not shown)
5,3.53,"COC(=O)c1cnn2c(NC(C)C(F)(F)F)c(-c3c(F)cc(F)cc3F)c(Cl)nc12 (stereo not shown) [CH(CH3)(CF3), H, 2,4,6-trifluorophenyl]"
6,4.12,"COC(=O)c1cnn2c(NC(C)C(C)C)c(-c3c(F)cccc3Cl)c(Cl)nc12 (stereo not shown) [CH(CH3)—CH(CH3)2, H, 2-Cl-6-F-phenyl]"
7,4.61,"COC(=O)c1cnn2c(NC(C)C(C)(C)C)c(-c3ccccc3Cl)c(Cl)nc12 (stereo not shown) [CH(CH3)—C(CH3)3, H, 2-Cl-phenyl]"
8,4.93,COC(=O)c1cnn2c(NC(C)C(C)(C)C)c(-c3c(F)cc(F)cc3F)c(Cl)nc12 (stereo not shown)
9,4.68,"COC(=O)c1cnn2c(NC(C)C(C)(C)C)c(-c3ccc(F)cc3Cl)c(Cl)nc12 (stereo not shown) [CH(CH3)—C(CH3)3, H, 2-Cl-4-F-phenyl]"

# Same assay, conditions: starting materials and intermediates, log P / log P*; read-out: log P
row,log p,SMILES
1,1.21,"COC(=O)c1cnn2c(O)c(-c3ccc(Cl)cc3Cl)c(O)nc12 [Methyl 6-(2,4-dichlorophenyl)-5,7-dihydroxypyrazolo[1,5-a]pyrimidine-3-carboxylate]"
2,3.86,"COC(=O)c1cnn2c(Cl)c(-c3ccc(Cl)cc3Cl)c(Cl)nc12 [Methyl 5,7-dichloro-6-(2,4-dichlorophenyl)pyrazolo[1,5-a]pyrimidine-3-carboxylate]"
3,3.3,"CC(C)Nc1c(-c2ccc(Cl)cc2Cl)c(Cl)nc2c(C(=O)O)cnn12 [5-Chloro-6-(2,4-dichlorophenyl)-7-isopropylaminopyrazolo[1,5-a]pyrimidine-3-carboxylic acid]"

# Same assay, conditions: values marked **; EEC Directive 79/831 Annex V.A8, HPLC gradient method, acetonitrile/0.1% aqueous formic acid
row,SMILES,log p
1,CC(C)[C@@H](C)Nc1c(-c2ccc(Cl)cc2Cl)c(Cl)nc2c(C(=O)NS(=O)(=O)C(F)(F)F)cnn12 [compound 206],3.87**
2,CCS(=O)(=O)NC(=O)c1cnn2c(N[C@H](C)C(C)C)c(-c3ccc(Cl)cc3Cl)c(Cl)nc12 [compound 208],4.88**

# Next, values leading:
row,log p,SMILES
1,4.38**,Cc1cc(F)c(-c2c(Cl)nc3c(C(=O)NS(C)(=O)=O)cnn3c2N[C@H](C)C(C)(C)C)c(F)c1 [compound 51]
2,4.08**,Cc1cc(F)c(-c2c(Cl)nc3c(C(=O)NS(C)(=O)=O)cnn3c2N[C@H](C)C(C)C)c(F)c1 [compound 219]
3,4.88**,CC(Nc1c(-c2ccccc2)c(Cl)nc2c(C(=O)Nc3ccon3)cnn12)C(C)(C)C (stereo not shown) [compound 71]

# Same assay, conditions: values marked *; HPLC, gradient method, acetonitrile/0.1% aqueous phosphoric acid, EEC Directive 79/831 Annex V. A8
SMILES,log p,chromatographic logP
CC(C)Nc1c(-c2ccccc2Cl)c(Cl)nc2c(C(=O)NS(C)(=O)=O)cnn12 [Example 357],3.44*,
CC(C)CNc1c(-c2ccccc2Cl)c(Cl)nc2c(C(=O)NS(C)(=O)=O)cnn12 [Example 441],3.78*,
CC(C)(C)CNc1c(-c2ccc(F)cc2Cl)c(Cl)nc2c(C(=O)NS(C)(=O)=O)cnn12 [Example 519],4.19*,
CC(C)Nc1c(-c2ccc(Cl)cc2Cl)c(Cl)nc2c(C(=O)NS(C)(=O)=O)cnn12 [compound 375],,3.91
CC(C)(C)CNc1c(-c2ccc(Cl)cc2Cl)c(Cl)nc2c(C(=O)NS(C)(=O)=O)cnn12 [Example 543],4.63*,
CC(C)(C)CNc1c(-c2c(F)cccc2Cl)c(Cl)nc2c(C(=O)NS(C)(=O)=O)cnn12 [Example 507],4.04*,
CC(C)CNc1c(-c2ccc(Cl)cc2Cl)c(Cl)nc2c(C(=O)NS(C)(=O)=O)cnn12 [Example 459],4.26*,
CC(C)(C)CNc1c(-c2ccccc2Cl)c(Cl)nc2c(C(=O)NS(C)(=O)=O)cnn12 [Example 525],4.17*,
CC(C)CNc1c(-c2ccc(F)cc2Cl)c(Cl)nc2c(C(=O)NS(C)(=O)=O)cnn12 [Example 435],3.82*,

# Other lines, results leading:
log p,chromatographic logP,SMILES
3.97*,,CC(C)CNc1c(-c2c(F)cc(Cl)cc2F)c(Cl)nc2c(C(=O)NS(C)(=O)=O)cnn12 [Example 465]
3.68*,,CC(C)Nc1c(-c2c(F)cc(Cl)cc2F)c(Cl)nc2c(C(=O)NS(C)(=O)=O)cnn12 [Example 381]
3.9*,,CC(C)(C)CNc1c(-c2c(F)cc(F)cc2F)c(Cl)nc2c(C(=O)NS(C)(=O)=O)cnn12 [Example 513]
3.59*,,CC(C)CNc1c(-c2c(F)cc(F)cc2F)c(Cl)nc2c(C(=O)NS(C)(=O)=O)cnn12 [Example 429]
4.31*,,CC(C)(C)CNc1c(-c2c(F)cc(Cl)cc2F)c(Cl)nc2c(C(=O)NS(C)(=O)=O)cnn12 [Example 549]

# Same assay, conditions: values marked *; no footnote carries the single asterisk; general footnote: HPLC gradient method, acetonitrile/0.1% aqueous phosphoric acid
row,SMILES,log p
1,CC1CCN(c2c(-c3c(F)cc(F)cc3Cl)c(Cl)nc3c(C(=O)NS(C)(=O)=O)cnn23)CC1 [Example 285],4.34*
2,CC1CCN(c2c(-c3c(F)cccc3Cl)c(Cl)nc3c(C(=O)NS(C)(=O)=O)cnn23)CC1 [Example 255],4.2*
3,CC(C)[C@@H](C)Nc1c(-c2ccc(Cl)cc2Cl)c(Cl)nc2c(C(=O)NS(C)(=O)=O)cnn12 [Example 207],4.55*

# Other lines, results leading:
row,log p,SMILES
1,3.9*,CC(C)[C@@H](C)Nc1c(-c2c(F)cccc2Cl)c(Cl)nc2c(C(=O)NS(C)(=O)=O)cnn12 [Example 171]
2,4.24*,CC(C)[C@@H](C)Nc1c(-c2c(F)cc(Cl)cc2F)c(Cl)nc2c(C(=O)NS(C)(=O)=O)cnn12 [Example 213]
3,4.19*,C[C@@H](Nc1c(-c2c(F)cccc2Cl)c(Cl)nc2c(C(=O)NS(C)(=O)=O)cnn12)C(C)(C)C [Example 3]
4,4.55*,C[C@@H](Nc1c(-c2c(F)cc(Cl)cc2F)c(Cl)nc2c(C(=O)NS(C)(=O)=O)cnn12)C(C)(C)C [Example 45]
5,4.36*,C[C@@H](Nc1c(-c2ccccc2Cl)c(Cl)nc2c(C(=O)NS(C)(=O)=O)cnn12)C(C)(C)C [Example 21]
6,4.07*,CC1CCN(c2c(-c3c(F)cc(F)cc3F)c(Cl)nc3c(C(=O)NS(C)(=O)=O)cnn23)CC1 [Example 261]
7,4.05*,CC(C)[C@@H](C)Nc1c(-c2c(F)cc(F)cc2Cl)c(Cl)nc2c(C(=O)NS(C)(=O)=O)cnn12 [Example 201]

# Same assay, conditions: values printed without asterisk; EEC Directive 79/831 Annex V. A8, HPLC gradient method, acetonitrile/0.1% aqueous phosphoric acid (general footnote)
row,log p,SMILES
1,3.99,C[C@H](Nc1c(-c2ccc(Cl)cc2Cl)c(Cl)nc2c(C(=O)NS(C)(=O)=O)cnn12)C(F)(F)F [Example 123]
2,3.93,C[C@@H](Nc1c(-c2ccc(Cl)cc2Cl)c(Cl)nc2c(C(=O)NS(=O)(=O)C(F)(F)F)cnn12)C(C)(C)C [Example 38]
3,4.18,CC(C)[C@@H](C)Nc1c(-c2ccc(F)cc2Cl)c(Cl)nc2c(C(=O)NS(C)(=O)=O)cnn12 [Example 183]
4,4.16,C[C@@H](Nc1c(-c2c(F)cc(F)cc2F)c(Cl)nc2c(C(=O)NS(C)(=O)=O)cnn12)C(C)(C)C [Example 9]
5,4.44,C[C@@H](Nc1c(-c2ccc(F)cc2Cl)c(Cl)nc2c(C(=O)NS(C)(=O)=O)cnn12)C(C)(C)C [Example 15]
6,3.77,C[C@@H](Nc1c(-c2ccc(F)cc2Cl)c(Cl)nc2c(C(=O)NS(=O)(=O)C(F)(F)F)cnn12)C(C)(C)C [Example 14]
